The results in this text go back to patent US4973578A, “Synthetic peptides derived from the alpha-subunit of human lycoprotein hormones” (Mayo Foundation for Medical Education and Research, priority 1988, dated 1990).

Residues, ends and D or L forms follow the SMILES beside them.

The assay has as its target T1, TSH receptor on human thyroid membranes (Homo sapiens, UniProt P16473).
T1 construct: Thyroid tissue obtained at surgery from patients with Graves' disease was prepared as described by Takahashi et al; from tissue; host or cells: human thyroid tissue from Graves' disease patients, 2000xg membrane fraction
Kind of assay: TSH radioreceptor assay: inhibition of 125I-bTSH binding to human thyroid membrane preparations. The following applies: for IC50: read-out: bTSH ED50 (effective dose necessary to inhibit binding of 125I-bTSH by 50%). The protocol:
Thyroid tissue obtained at surgery from patients with Graves' disease was prepared as described by Takahashi et al., J. Clin. Endocrinol. Metab. 47:870 (1978), the disclosure of which is incorporated herein. Briefly, the tissue was dissected free of fibrous material, minced with scissors, and homogenized with Polytron homogenizer. The 2000×g fraction was collected by centrifugation, washed and resuspended in 40 mM Tris, 0.1% Bovine Serum Albumin (BSA) pH 7.4 at a concentration of 100 mg equivalents of wet tissue per milliliter. The preparation was stored at -70° C. until used for assay.
Highly purified bovine TSH (30 IU/mg, supplied by Dr. J. G. Pierce, UCLA) was radio-iodinated (Na^125 I, Amersham, Chicago) by a gentle lactoperoxidase procedure described by Takahashi et al., supra, then purified by Sephadex G-100 chromatography.
The membrane assay incubation mixture consisted of […] of the 2000×g membrane fraction, 0.125 ng ^125 I bTSH (approximately 20,000 cpm, 5×10^-12 M), 100 ul of 1% Triton X-100 and noted amounts of test materials in a final volume of 0.5 ml of 40 mM Tris-HCl pH 7.4 plus 0.1% BSA. Nonspecific binding was determined by addition of excess unlabeled bTSH (200 mU/ml, Sigma, St. Louis). After 2 hrs incubation at 25° C., 200 ul of 5 mg/ml bovine gamma globulin and 1 ml 30% polyethylene glycol 6000 (Baker, Phillipsburg, N.J.) in 1M NaCl was added to each tube and the tubes centrifuged at 4000 rpm for 25 minutes. The supernatants were aspirated and pellets counted in a gamma counter. Specific binding averaged 25% of total counts.
FIG. 1 reports 5×10^-12 M labeled bTSH incubated with 10 mg equivalents (wet weight) of 2000×g fraction of thyroid membranes with varying concentrations of unlabeled TSH or synthetic α-subunit peptides. Nonspecific binding was determined in the presence of excess unlabeled TSH.

[1] abbreviates: human thyroid membrane homogenates, ± S.E.

T1 sequence (P16473 21-764): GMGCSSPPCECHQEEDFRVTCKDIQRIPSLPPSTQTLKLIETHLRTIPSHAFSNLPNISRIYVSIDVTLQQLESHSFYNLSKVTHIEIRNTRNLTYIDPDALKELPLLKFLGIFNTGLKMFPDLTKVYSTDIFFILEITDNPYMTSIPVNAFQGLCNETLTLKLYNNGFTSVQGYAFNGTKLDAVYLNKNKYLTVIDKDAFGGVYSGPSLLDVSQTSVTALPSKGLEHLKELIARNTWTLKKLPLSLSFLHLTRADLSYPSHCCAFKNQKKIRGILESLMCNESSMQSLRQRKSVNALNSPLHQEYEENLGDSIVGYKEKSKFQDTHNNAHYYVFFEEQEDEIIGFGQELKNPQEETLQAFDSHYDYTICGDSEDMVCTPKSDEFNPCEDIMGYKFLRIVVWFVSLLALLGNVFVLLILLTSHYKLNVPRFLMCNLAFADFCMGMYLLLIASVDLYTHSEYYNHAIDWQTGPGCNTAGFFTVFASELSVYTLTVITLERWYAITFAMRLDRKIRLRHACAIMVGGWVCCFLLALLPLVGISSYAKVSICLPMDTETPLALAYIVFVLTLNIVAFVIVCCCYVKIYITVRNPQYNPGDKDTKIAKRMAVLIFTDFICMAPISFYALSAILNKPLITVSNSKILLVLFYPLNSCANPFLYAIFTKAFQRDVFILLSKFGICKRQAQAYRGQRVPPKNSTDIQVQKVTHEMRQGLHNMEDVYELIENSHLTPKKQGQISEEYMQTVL

With `CC(C)C[C@H](NC(=O)[C@@H](NC(=O)[C@H](CS)NC(=O)[C@H](CCC(=O)O)NC(=O)[C@@H]1CCCN1C(=O)[C@H](CS)NC(=O)[C@H](CC(=O)O)NC(=O)[C@H](CCC(N)=O)NC(=O)[C@@H](NC(=O)[C@H](CC(=O)O)NC(=O)[C@@H]1CCCN1C(=O)[C@H](C)N)C(C)C)[C@@H](C)O)C(=O)N[C@@H](CCC(N)=O)C(=O)N[C@@H](CCC(=O)O)C(=O)N[C@@H](CC(N)=O)C(N)=O` [α1-15, Ala--Pro--Asp--Val--Gln--Asp--Cys--Pro--Glu--Cys--Thr--Leu--Gln--Glu--Asn] (H-APDVQDCPECTLQEN-NH2), under setting [1], the IC50 is more than 700 µM.
`CC[C@H](C)[C@H](NC(=O)[C@@H]1CCCN1C(=O)[C@H](C)NC(=O)CNC(=O)[C@@H]1CCCN1C(=O)[C@H](CCC(N)=O)NC(=O)[C@H](CO)NC(=O)[C@H](Cc1ccccc1)NC(=O)[C@H](Cc1ccccc1)NC(=O)[C@@H]1CCCN1C(=O)[C@H](CC(N)=O)NC(=O)[C@H](CCC(=O)O)NC(=O)[C@H](CCC(N)=O)NC(=O)[C@H](CC(C)C)NC(=O)[C@@H](N)[C@@H](C)O)C(N)=O` [α11-25, Thr--Leu--Gln--Glu--Asn--Pro--Phe--Phe--Ser--Gln--Pro--Gly--Ala--Pro--Ile] (H-TLQENPFFSQPGAPI-NH2): under setting [1], the “bTSH ED50 (effective dose necessary to inhibit binding of 125I-bTSH by 50%)” value is reported as “no activity”.
As for `CC(C)C[C@H](NC(=O)[C@@H]1CCCN1C(=O)[C@@H](NC(=O)[C@@H]1CCCN1C(=O)[C@H](Cc1ccc(O)cc1)NC(=O)[C@H](C)NC(=O)[C@H](CCCNC(=N)N)NC(=O)[C@H](CO)NC(=O)[C@H](Cc1ccccc1)NC(=O)[C@H](CS)NC(=O)[C@@H](N)CS)[C@@H](C)O)C(=O)N[C@@H](CCCNC(=N)N)C(=O)N[C@@H](CO)C(=O)N[C@@H](CCCCN)C(=O)N[C@@H](CCCCN)C(N)=O` [α31-45, Cys--Cys--Phe--Ser--Arg--Ala--Tyr--Pro--Thr--Pro--Leu--Arg--Ser--Lys--Lys] (H-CCFSRAYPTPLRSKK-NH2), the “displacement of 125I-bTSH label” value (at concentrations greater than 1×10^-5 m, FIG. 1) is listed as “more than 80%”. For the same compound, under setting [1], the IC50 was found to be 31.2 ± 3.8 µM.
Regarding `CSCC[C@H](NC(=O)[C@@H](NC(=O)[C@H](CCCCN)NC(=O)[C@H](CCCCN)NC(=O)[C@H](CO)NC(=O)[C@H](CCCNC(=N)N)NC(=O)[C@@H](N)CC(C)C)[C@@H](C)O)C(=O)N[C@@H](CC(C)C)C(=O)N[C@H](C(=O)N[C@@H](CCC(N)=O)C(=O)N[C@@H](CCCCN)C(=O)N[C@@H](CC(N)=O)C(=O)N[C@H](C(=O)N[C@H](C(=O)N[C@@H](CO)C(N)=O)[C@@H](C)O)C(C)C)C(C)C` [α41-55, Leu--Arg--Ser--Lys--Lys--Thr--Met--Leu--Val--Gln Lys--Asn--Val--Thr--Ser] (H-LRSKKTMLVQKNVTS-NH2), the IC50 under setting [1] is 171 ± 28.3 µM.
Regarding `CC(C)[C@H](NC(=O)[C@H](CS)NC(=O)[C@H](CS)NC(=O)[C@@H](NC(=O)[C@H](CO)NC(=O)[C@H](CCC(=O)O)NC(=O)[C@H](CO)NC(=O)[C@@H](NC(=O)[C@@H](NC(=O)[C@H](CC(N)=O)NC(=O)[C@@H](N)CCCCN)C(C)C)[C@@H](C)O)[C@@H](C)O)C(=O)N[C@@H](C)C(=O)N[C@@H](CCCCN)C(=O)N[C@@H](CO)C(=O)N[C@@H](Cc1ccc(O)cc1)C(N)=O` [α51-65, Lys--Asn--Val--Thr--Ser--Glu--Ser--Thr--Cys--Cys--Val--Ala--Lys--Ser--Tyr] (H-KNVTSESTCCVAKSY-NH2), the IC50 under setting [1] was determined as 237 ± 9.5 µM.
The same measure, in the same setting: the value for `CSCC[C@H](NC(=O)[C@@H](NC(=O)[C@@H](NC(=O)[C@@H](NC(=O)[C@H](CCCNC(=N)N)NC(=O)[C@H](CC(N)=O)NC(=O)[C@H](Cc1ccc(O)cc1)NC(=O)[C@H](CO)NC(=O)[C@H](CCCCN)NC(=O)[C@H](C)NC(=O)[C@@H](N)C(C)C)C(C)C)[C@@H](C)O)C(C)C)C(=O)NCC(=O)NCC(=O)N[C@@H](Cc1ccccc1)C(=O)N[C@@H](CCCCN)C(N)=O` [α61-75, Val--Ala--Lys--Ser--Tyr--Asn--Arg--Val--Thr--Val--Met--Gly--Gly--Phe--Lys] (H-VAKSYNRVTVMGGFK-NH2) was more than 700 µM; that for `CSCC[C@H](N)C(=O)NCC(=O)NCC(=O)N[C@@H](Cc1ccccc1)C(=O)N[C@@H](CCCCN)C(=O)N[C@H](C(=O)N[C@@H](CCC(=O)O)C(=O)N[C@@H](CC(N)=O)C(=O)N[C@@H](Cc1c[nH]cn1)C(=O)N[C@H](C(=O)N[C@@H](C)C(=O)N[C@@H](CS)C(=O)N[C@@H](Cc1c[nH]cn1)C(=O)N[C@@H](CS)C(=O)N[C@@H](CO)C(N)=O)[C@@H](C)O)C(C)C` [α71-85, Met--Gly--Gly--Phe--Lys--Val--Glu--Asn--His--Thr--Ala--Cys--His--Cys--Ser] (H-MGGFKVENHTACHCS-NH2) was more than 700 µM.
